Patent US9833497B2, “Human originated EGF domain proteins and use of the same” (CHENGDU SOURCEBIO LIMITED-LIABILITY COMPANY, priority 2013, dated 2017)

Tests used:
Type in all cases: cell-based
Proteus vulgaris = experiment: MIC against Gram-negative bacteria: Proteus vulgaris; conditions: for MIC / MIC (μg/mL) P. vulgaris: P. vulgaris; for MIC P. vulgaris: two-fold serial dilution
Procedure, shortened: (§1)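 MIC = lowest concentration of recombinant protein showing no growth. Test proteins: purified human-derived EGF domain proteins, two-fold dilution series, three wells per concentration; inoculum 5×10^5 CFU/mL in LB; incubation 37° C with shaking at 175 rpm.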

Aeromonas hydrophila = experiment: MIC against Gram-negative bacteria: Aeromonas hydrophila; conditions: for MIC / MIC (μg/mL) A. hydrophila: A. hydrophila; for MIC A. hydrophila: two-fold serial dilution
Procedure, shortened: as §1

Pseudomonas aeruginosa = experiment: MIC against Gram-negative bacteria: Pseudomonas aeruginosa; conditions: for MIC / MIC (μg/mL) P. aeruginosa: P. aeruginosa; for MIC P. aeruginosa: two-fold serial dilution
Procedure, shortened: as §1

Enterobacter cloacae = experiment: MIC against Gram-negative bacteria: Enterobacter cloacae; conditions: for MIC / MIC (μg/mL) E. cloacae: E. cloacae; for MIC E. cloacae: two-fold serial dilution
Procedure, shortened: as §1

Citrobacter diversus = experiment: MIC against Gram-negative bacteria: Citrobacter diversus; conditions: for MIC / MIC (μg/mL) C. diversus: C. diversus; for MIC C. diversus: two-fold serial dilution
Procedure, shortened: as §1

Proteus mirabilis = experiment: MIC against Gram-negative bacteria: Proteus mirabilis; conditions: for MIC / MIC (μg/mL) P. mirabilis: P. mirabilis; for MIC P. mirabilis: two-fold serial dilution
Procedure, shortened: as §1

Klebsiella pneumonia = experiment: MIC against Gram-negative bacteria: Klebsiella pneumonia; conditions: for MIC / MIC (μg/mL) K. pneumonia: K. pneumonia; for MIC K. pneumonia: two-fold serial dilution
Procedure, shortened: as §1

Serratia marcescens = experiment: MIC against Gram-negative bacteria: Serratia marcescens; conditions: for MIC / MIC (μg/mL) S. marcescens: S. marcescens; for MIC S. marcescens: two-fold serial dilution
Procedure, shortened: as §1

Moraxella catarrhalis = experiment: MIC against Gram-negative bacteria: Moraxella catarrhalis; conditions: for MIC / MIC (μg/mL) M. catarrhalis: M. catarrhalis; for MIC M. catarrhalis: two-fold serial dilution
Procedure, shortened: as §1

E. coli BL21 = experiment: MIC against Gram-negative bacteria: E. coli BL21; conditions: for MIC E. coli BL21: two-fold serial dilution
Procedure, shortened: as §1

E. coli DH5α = experiment: Antibacterial activity: MIC and growth curve against E. coli DH5α in 96-well plate; conditions: minimal inhibitory concentration against E. coli DH5α; 96-well plate, 5×10^5 CFU/mL, 37° C., judged after 8 h
Procedure, shortened: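 Log-phase bacteria (OD600 ~0.5) resuspended in LB at 5×10^5 CFU/mL, exposed to recombinant protein at 50, 25, 12.5 μg/mL final in triplicate, 37 °C shaking at 175 rpm. OD600 read every 30 min; MIC is lowest concentration showing no growth.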

[1] = 96-well plate, 5×10^5 CFU/mL, 37° C., 10 h
[2] = 10 h cultivation at 37° C., 5×10^5 CFU/mL
[3] = E. coli BL21, 10 h cultivation at 37° C., 5×10^5 CFU/mL
[4] = Proteus vulgaris, 96-well plate, 5×10^5 CFU/mL, 37° C., 10 h
[5] = Aeromonas hydrophila, 96-well plate, 5×10^5 CFU/mL, 37° C., 10 h
[6] = Pseudomonas aeruginosa, 96-well plate, 5×10^5 CFU/mL, 37° C., 10 h
[7] = Enterobacter cloacae, 96-well plate, 5×10^5 CFU/mL, 37° C., 10 h
[8] = Citrobacter diversus, 96-well plate, 5×10^5 CFU/mL, 37° C., 10 h
[9] = Proteus mirabilis, 96-well plate, 5×10^5 CFU/mL, 37° C., 10 h
[10] = Klebsiella pneumonia, 96-well plate, 5×10^5 CFU/mL, 37° C., 10 h
[11] = Serratia marcescens, 96-well plate, 5×10^5 CFU/mL, 37° C., 10 h
[12] = Moraxella catarrhalis, 96-well plate, 5×10^5 CFU/mL, 37° C., 10 h
[13] = E. coli BL21, 96-well plate, 5×10^5 CFU/mL, 37° C., 10 h

## PRT450 (KCLCPLGFLLANDSKTCEDIDE; listed as Homo sapiens)
Proteus vulgaris; [1]
  MIC against P. vulgaris: 50 µg/mL
Aeromonas hydrophila; [1]
  MIC against A. hydrophila: 50 µg/mL
Pseudomonas aeruginosa; [1]
  MIC against P. aeruginosa: 12.5 µg/mL
Enterobacter cloacae; [1]
  MIC against E. cloacae: 12.5 µg/mL
Citrobacter diversus; [1]
  MIC against C. diversus: 12.5 µg/mL
Proteus mirabilis; [1]
  MIC against P. mirabilis: 12.5 µg/mL
Klebsiella pneumonia; [1]
  MIC against K. pneumonia: 50 µg/mL
Serratia marcescens; [1]
  MIC against S. marcescens: 12.5 µg/mL
Moraxella catarrhalis; [1]
  MIC against M. catarrhalis: 50 µg/mL
E. coli BL21; [1]
  MIC against E. coli BL21: 12.5 µg/mL
E. coli DH5α
  MIC: 12.5 µg/mL

## PRT437 (DEDECAAGNPCSHSCHNAMGTYYCSCPKGLTIAADGRTCQ; listed as Homo sapiens)
Proteus vulgaris; [2]
  MIC: 25 µg/mL
Aeromonas hydrophila; [2]
  MIC: 25 µg/mL
Pseudomonas aeruginosa; [2]
  MIC: 50 µg/mL
Enterobacter cloacae; [2]
  MIC: 12.5 µg/mL
Citrobacter diversus; [2]
  MIC: 50 µg/mL
Proteus mirabilis; [2]
  MIC: 12.5 µg/mL
Klebsiella pneumonia; [2]
  MIC: 25 µg/mL
Serratia marcescens; [2]
  MIC: 50 µg/mL
Moraxella catarrhalis; [2]
  MIC: 25 µg/mL
E. coli BL21; [3]
  MIC: 12.5 µg/mL
E. coli DH5α
  MIC: 50 µg/mL

## PRT1227 (NLKLCDASNHCDRHGVCNNFNHCHCEKGYNPPYCQ; listed as Homo sapiens)
Proteus vulgaris; [4]
  MIC against P. vulgaris: 25 µg/mL
Aeromonas hydrophila; [5]
  MIC against A. hydrophila: 12.5 µg/mL
Pseudomonas aeruginosa; [6]
  MIC against P. aeruginosa: 12.5 µg/mL
Enterobacter cloacae; [7]
  MIC against E. cloacae: 12.5 µg/mL
Citrobacter diversus; [8]
  MIC against C. diversus: 12.5 µg/mL
Proteus mirabilis; [9]
  MIC against P. mirabilis: 12.5 µg/mL
Klebsiella pneumonia; [10]
  MIC against K. pneumonia: 25 µg/mL
Serratia marcescens; [11]
  MIC against S. marcescens: 12.5 µg/mL
Moraxella catarrhalis; [12]
  MIC against M. catarrhalis: 12.5 µg/mL
E. coli BL21; [13]
  MIC against E. coli BL21: 25 µg/mL
E. coli DH5α
  MIC: 50 µg/mL

## PRT938 (DIDDCLANPCQNGGSCMDGVNTFSCLCLPGFTGDKCQ; listed as Homo sapiens)
Proteus vulgaris; 10 h cultivation at 37° C.
  MIC: 50 µg/mL
Aeromonas hydrophila; 10 h cultivation at 37° C.
  MIC: 50 µg/mL
Pseudomonas aeruginosa; 10 h cultivation at 37° C.
  MIC: 25 µg/mL
Enterobacter cloacae; 10 h cultivation at 37° C.
  MIC: 25 µg/mL
Citrobacter diversus; 10 h cultivation at 37° C.
  MIC: 12.5 µg/mL
Proteus mirabilis; 10 h cultivation at 37° C.
  MIC: 12.5 µg/mL
Klebsiella pneumonia; 10 h cultivation at 37° C.
  MIC: 12.5 µg/mL
Serratia marcescens; 10 h cultivation at 37° C.
  MIC: 12.5 µg/mL
Moraxella catarrhalis; 10 h cultivation at 37° C.
  MIC: 50 µg/mL
E. coli BL21; E. coli BL21, 10 h cultivation at 37° C.
  MIC: 50 µg/mL
E. coli DH5α
  MIC: 12.5 µg/mL

## PRT255 (DVDECVGLQPVCPQGTTCINTGGSFQCVSPECPEG; listed as Homo sapiens)
Proteus vulgaris; [2]
  MIC (μg/mL) P. vulgaris: 25 µg/mL
Aeromonas hydrophila; [2]
  MIC (μg/mL) A. hydrophila: 25 µg/mL
Pseudomonas aeruginosa; [2]
  MIC (μg/mL) P. aeruginosa: 12.5 µg/mL
Enterobacter cloacae; [2]
  MIC (μg/mL) E. cloacae: 12.5 µg/mL
Citrobacter diversus; [2]
  MIC (μg/mL) C. diversus: 12.5 µg/mL
Proteus mirabilis; [2]
  MIC (μg/mL) P. mirabilis: 100 µg/mL
Klebsiella pneumonia; [2]
  MIC (μg/mL) K. pneumonia: 12.5 µg/mL
Serratia marcescens; [2]
  MIC (μg/mL) S. marcescens: 12.5 µg/mL
Moraxella catarrhalis; [2]
  MIC (μg/mL) M. catarrhalis: 25 µg/mL
E. coli BL21; [3]
  MIC (μg/mL) E. coli BL21: 12.5 µg/mL
E. coli DH5α
  MIC: 12.5 µg/mL

## PRT1084 (HLVKCAEKEKTFCVNGGECFMVKDLSNPSRYLCKCQPGFTGARCT; listed as Homo sapiens)
Proteus vulgaris; [2]
  MIC P. vulgaris: 25 µg/mL
Aeromonas hydrophila; [2]
  MIC A. hydrophila: 12.5 µg/mL
Pseudomonas aeruginosa; [2]
  MIC P. aeruginosa: 50 µg/mL
Enterobacter cloacae; [2]
  MIC E. cloacae: 50 µg/mL
Citrobacter diversus; [2]
  MIC C. diversus: 12.5 µg/mL
Proteus mirabilis; [2]
  MIC P. mirabilis: 12.5 µg/mL
Klebsiella pneumonia; [2]
  MIC K. pneumonia: 50 µg/mL
Serratia marcescens; [2]
  MIC S. marcescens: 12.5 µg/mL
Moraxella catarrhalis; [2]
  MIC M. catarrhalis: 25 µg/mL
E. coli BL21; [2]
  MIC E. coli BL21: 12.5 µg/mL
E. coli DH5α
  MIC: 50 µg/mL

## PRT1265 (DVDECLENNGGCQHTCVNVMGSYECCCKEGFFLSDNQHTCI; listed as Homo sapiens)
Proteus vulgaris; [4]
  MIC against P. vulgaris: 50 µg/mL
Aeromonas hydrophila; [5]
  MIC against A. hydrophila: 50 µg/mL
Pseudomonas aeruginosa; [6]
  MIC against P. aeruginosa: 25 µg/mL
Enterobacter cloacae; [7]
  MIC against E. cloacae: 25 µg/mL
Citrobacter diversus; [8]
  MIC against C. diversus: 25 µg/mL
Proteus mirabilis; [9]
  MIC against P. mirabilis: 12.5 µg/mL
Klebsiella pneumonia; [10]
  MIC against K. pneumonia: 12.5 µg/mL
Serratia marcescens; [11]
  MIC against S. marcescens: 12.5 µg/mL
Moraxella catarrhalis; [12]
  MIC against M. catarrhalis: 12.5 µg/mL
E. coli BL21; [13]
  MIC against E. coli BL21: 50 µg/mL
E. coli DH5α
  MIC: 25 µg/mL

## PRT1053 (QLVSCPRNVSECSHDCVLTSEGPLCFCPEGSVLERDGKTCS; listed as Homo sapiens)
Proteus vulgaris; [2]
  MIC P. vulgaris: 12.5 µg/mL
Aeromonas hydrophila; [2]
  MIC A. hydrophila: 50 µg/mL
Pseudomonas aeruginosa; [2]
  MIC P. aeruginosa: 12.5 µg/mL
Enterobacter cloacae; [2]
  MIC E. cloacae: 12.5 µg/mL
Citrobacter diversus; [2]
  MIC C. diversus: 12.5 µg/mL
Proteus mirabilis; [2]
  MIC P. mirabilis: 100 µg/mL
Klebsiella pneumonia; [2]
  MIC K. pneumonia: 50 µg/mL
Serratia marcescens; [2]
  MIC S. marcescens: 100 µg/mL
Moraxella catarrhalis; [2]
  MIC M. catarrhalis: 12.5 µg/mL
E. coli BL21; [2]
  MIC E. coli BL21: 12.5 µg/mL
E. coli DH5α
  MIC: 12.5 µg/mL

## PRT792 (YGVLCAETCQCVNGGKCYHVSGACLCEAGFAGERCE; listed as Homo sapiens)
Proteus vulgaris; [2]
  MIC (μg/mL) P. vulgaris: 12.5 µg/mL
Aeromonas hydrophila; [2]
  MIC (μg/mL) A. hydrophila: 50 µg/mL
Pseudomonas aeruginosa; [2]
  MIC (μg/mL) P. aeruginosa: 12.5 µg/mL
Enterobacter cloacae; [2]
  MIC (μg/mL) E. cloacae: 25 µg/mL
Citrobacter diversus; [2]
  MIC (μg/mL) C. diversus: 25 µg/mL
Proteus mirabilis; [2]
  MIC (μg/mL) P. mirabilis: 50 µg/mL
Klebsiella pneumonia; [2]
  MIC (μg/mL) K. pneumonia: 12.5 µg/mL
Serratia marcescens; [2]
  MIC (μg/mL) S. marcescens: 50 µg/mL
Moraxella catarrhalis; [2]
  MIC (μg/mL) M. catarrhalis: 12.5 µg/mL
E. coli BL21; [3]
  MIC (μg/mL) E. coli BL21: 50 µg/mL
E. coli DH5α
  MIC: 12.5 µg/mL

## PRT1362 (GKPTCPHACHTQGRCEEGQCVCDEGFAGVDCS; listed as Homo sapiens)
Proteus vulgaris; Proteus vulgaris, 5×10^5 CFU/mL, 10 h cultivation at 37° C.
  MIC against P. vulgaris: 12.5 µg/mL
Aeromonas hydrophila; Aeromonas hydrophila, 5×10^5 CFU/mL, 10 h cultivation at 37° C.
  MIC against A. hydrophila: 50 µg/mL
Pseudomonas aeruginosa; Pseudomonas aeruginosa, 5×10^5 CFU/mL, 10 h cultivation at 37° C.
  MIC against P. aeruginosa: 50 µg/mL
Enterobacter cloacae; Enterobacter cloacae, 5×10^5 CFU/mL, 10 h cultivation at 37° C.
  MIC against E. cloacae: 12.5 µg/mL
Citrobacter diversus; Citrobacter diversus, 5×10^5 CFU/mL, 10 h cultivation at 37° C.
  MIC against C. diversus: 12.5 µg/mL
Proteus mirabilis; Proteus mirabilis, 5×10^5 CFU/mL, 10 h cultivation at 37° C.
  MIC against P. mirabilis: 12.5 µg/mL
Klebsiella pneumonia; Klebsiella pneumonia, 5×10^5 CFU/mL, 10 h cultivation at 37° C.
  MIC against K. pneumonia: 25 µg/mL
Serratia marcescens; Serratia marcescens, 5×10^5 CFU/mL, 10 h cultivation at 37° C.
  MIC against S. marcescens: 12.5 µg/mL
Moraxella catarrhalis; Moraxella catarrhalis, 5×10^5 CFU/mL, 10 h cultivation at 37° C.
  MIC against M. catarrhalis: 50 µg/mL
E. coli BL21; E. coli BL21, 5×10^5 CFU/mL, 10 h cultivation at 37° C.
  MIC against E. coli BL21: 25 µg/mL
E. coli DH5α
  MIC: 12.5 µg/mL
